Measurements reported in US20090068113A1, “AMPHIPHILIC SQUARAINE DYES, PROCESS FOR PREPARATION THEREOF AND USE THEREOF” (COUNCIL OF SCIENTIFIC AND INDUSTRIAL RESEARCH, priority 2005, published 2009).

Experiments:
Type in all cases: physicochemical
[1] = Photophysical properties and picosecond time-resolved fluorescence lifetimes in the presence of cationic micelle CTAB; conditions: for Abs λmax / Ems λmax / Φf: In the presence of CTAB
Text: (§1) Study of the stability and photophysical properties of a photosensitizer under physiological conditions is important during its evaluation for various in vitro and in vivo applications. Particularly, the influence of membrane mimics like cetyltrimethylammonium bromide and carrier systems like β-cyclodextrin will provide information on the sensitizer behaviour under physiological conditions. Moreover, such studies are also useful to clarify points such as whether a particular dye forms aggregates or not and whether it generates cytotoxic agents or not in such environments. These media are unique in their properties, since β-CD forms inclusion complexes with the guest molecules, while others form micellar structures thereby provide in them both the hydrophobic and hydrophilic environment.
(§2) FIGS. 3, 4, and 5 show the emission spectra of dye of the general formula 1, wherein, R^1=—(CH2—CH2—O)n—CH3, n=4 and R^2=—CH3 in the presence of cationic micelle CTAB, anionic micelle SDS and neutral micelle Triton X-100, respectively. As the concentration of micelles increases, the fluorescence intensity of the dye increases showing an effective interaction between the micelles and the dye. To have a better understanding of the effect of micellar media we have analyzed the picosecond time-resolved fluorescence lifetimes of dyes of the general formula 1. […] Tables 2, 3 and 4
(§3) lists the absorption and emission maxima, fluorescence quantum yield and lifetimes of dyes of the general formula 1 wherein, R^1=—(CH2—CH2—O)n—CH3, n=4 and R^2=—CH3, general formula 2, wherein R^1, R^2=—(CH2—CH2—O)n—CH3, n=4 and general formula 3, wherein R^1=—(CH2)n—CO2X, n=3, X=H, and R^2=—CH3, in the absence and presence of cationic micelle CTAB, anionic micelle SDS and neutral micelle Triton X-100.

[2] = Photophysical properties and fluorescence lifetimes in the presence of β-CD; conditions: for Abs λmax / Ems λmax / Φf: In the presence of β-CD
Text: as §1
Table 5 summarises the absorption and emission maxima, fluorescence quantum yields and lifetimes of squaraine dyes of the general formula 1 in the presence of β-CD.

[3] = Summary of photophysical properties in the presence of membrane mimics and drug carriers; conditions: presence of membrane mimics and drug carriers versus aqueous media
Text: The main advantages of these systems include: • 1. Squaraines dyes represented by formulae 1, 2 and 3 are novel and pure single substances. • 2. Their synthetic methodology is very economical. • 3. […] They can be used for photodynamic applications such as sterilization of fluids etc. • 7. The squaraine-based dyes can be used as near infrared fluorescent probes for protein labeling. • 8. The squaraine dyes of the general formula 1 can be used as near infrared fluorescent labels in immunoassays. • 9. They can be used for the detection of biologically important metal ions under physiological conditions. • 10. These novel dyes can be used as near-infrared fluorescence sensors in biological, biochemical and industrial applications.

[4] = Absorption, emission and fluorescence quantum yield in aqueous and alcoholic solvents
Text: The absorption and emission maxima, and fluorescence quantum yields of these dyes in aqueous and alcoholic solvents are listed in Table 1. The long wavelength absorption and emission maxima and good fluorescence quantum yields in aqueous media make these dyes ideal candidates for application as fluorescence probes.

[5] = Photophysical properties and fluorescence lifetimes in the presence of neutral micelle Triton X-100
Text: as §1, §2, §3

[6] = Photophysical properties and fluorescence lifetimes in the presence of β-CD; conditions: in the absence of β-CD
[7] = Photophysical properties and fluorescence lifetimes in the presence of anionic micelle SDS
Text: as §1, §2, §3

[8] = In the presence of Triton X-100

Compound	Abs λmax [1]	Ems λmax [1]	Φf [1]	Abs λmax [2]	Ems λmax [2]	Φf [2]	increase of emission quantum yield [3]	Φf (fluorescence quantum yield) ([4]; 10% v/v Ethanol/water)	λmax, nm abs ([4]; 10% v/v Ethanol/water)	λmax, nm ems ([4]; 10% v/v Ethanol/water)	Φf (fluorescence quantum yield) ([4]; Ethanol)	λmax, nm abs ([4]; Ethanol)	λmax, nm ems ([4]; Ethanol)	Φf (fluorescence quantum yield) ([4]; Water)	λmax, nm abs ([4]; Water)	λmax, nm ems ([4]; Water)	Abs λmax [5, 8]	Ems λmax [5, 8]	Φf [5, 8]	Abs λmax ([7]; In the presence of SDS)	also measured
COCCOCCOCCOCCN(C)c1ccc(C2=C([O-])C(=C3C=CC(=[N+](C)CCOCCOCCOCCOC)C=C3)C2=O)cc1 [Formula 1]	642 nm	663 nm	0.12	644 nm	663 nm	0.10	~10 fold	0.018	645 nm	674 nm	0.19	637 nm	660 nm	0.013	644 nm	671 nm	645 nm	669 nm	0.12	640 nm	fluorescence intensity as the concentration of micelles increases ([1]; CTAB 0 to 129 mM, excitation 600 nm): increases; form of fluorescence decay ([2]; in the presence of β-CD): Biexponential decay; fluorescence intensity as the concentration of micelles increases ([5]; Triton X-100 0 to 118 mM, excitation 600 nm): increases; form of fluorescence decay [6]: mono exponential decay; Ems λmax ([7]; In the presence of SDS): 663 nm; Lifetimes ([7]; In the presence of SDS): 590 ps; Φf ([7]; In the presence of SDS): 0.15; fluorescence intensity as the concentration of micelles increases ([7]; SDS 0 to 21 mM, excitation 600 nm): increases
COCCOCCOCCOCCN(CCOCCOCCOCCOC)c1ccc(C2=C([O-])C(=C3C=CC(=[N+](CCOCCOCCOCCOC)CCOCCOCCOCCOC)C=C3)C2=O)cc1 [Formula 2]	644 nm	667 nm	0.096	645 nm	668 nm	0.07	~10 fold	0.026	646 nm	675 nm	0.21	638 nm	662 nm	0.021	646 nm	676 nm	646 nm	671 nm	0.14	643 nm	Relative contribution of lifetime component [5, 8]: (7%); Ems λmax ([7]; In the presence of SDS): 668 nm; Φf ([7]; In the presence of SDS): 0.16
CN(CCCC(=O)O)c1ccc(C2=C([O-])C(=C3C=CC(=[N+](C)CCCC(=O)O)C=C3)C2=O)cc1 [Formula 3]	644 nm	667 nm	0.14	649 nm	666 nm	0.19	~10 fold	0.015	647 nm	673 nm	0.18	636 nm	662 nm	0.007	645 nm	673 nm	649 nm	672 nm	0.12		
